From ChEMBL document CHEMBL1759974, “Discovery of triazine-benzimidazoles as selective inhibitors of mTOR” (Bioorg Med Chem Lett, 2011)

Tests used:
[1] = target: T1, Serine/threonine-protein kinase mTOR (Homo sapiens, UniProt P42345)
Description: Inhibition of mTOR in human U-87 cells assessed as inhibition of phosphorylation of AKT at S473

[2] = Plasma protein binding in Sprague-Dawley rat at 1 mg/kg, iv and 2 mg/kg, po; assay type: ADME, organism-based; settings: read-out: PPB (converted)
[3] = target: T1, Serine/threonine-protein kinase mTOR; remark: listed apart in the source
[4] = target: Phosphatidylinositol 4,5-bisphosphate 3-kinase catalytic subunit gamma isoform (Homo sapiens, UniProt P48736)
[5] = target: T2, Phosphatidylinositol 4,5-bisphosphate 3-kinase catalytic subunit delta isoform (Homo sapiens, UniProt O00329)
T2 sequence (O00329 whole entry): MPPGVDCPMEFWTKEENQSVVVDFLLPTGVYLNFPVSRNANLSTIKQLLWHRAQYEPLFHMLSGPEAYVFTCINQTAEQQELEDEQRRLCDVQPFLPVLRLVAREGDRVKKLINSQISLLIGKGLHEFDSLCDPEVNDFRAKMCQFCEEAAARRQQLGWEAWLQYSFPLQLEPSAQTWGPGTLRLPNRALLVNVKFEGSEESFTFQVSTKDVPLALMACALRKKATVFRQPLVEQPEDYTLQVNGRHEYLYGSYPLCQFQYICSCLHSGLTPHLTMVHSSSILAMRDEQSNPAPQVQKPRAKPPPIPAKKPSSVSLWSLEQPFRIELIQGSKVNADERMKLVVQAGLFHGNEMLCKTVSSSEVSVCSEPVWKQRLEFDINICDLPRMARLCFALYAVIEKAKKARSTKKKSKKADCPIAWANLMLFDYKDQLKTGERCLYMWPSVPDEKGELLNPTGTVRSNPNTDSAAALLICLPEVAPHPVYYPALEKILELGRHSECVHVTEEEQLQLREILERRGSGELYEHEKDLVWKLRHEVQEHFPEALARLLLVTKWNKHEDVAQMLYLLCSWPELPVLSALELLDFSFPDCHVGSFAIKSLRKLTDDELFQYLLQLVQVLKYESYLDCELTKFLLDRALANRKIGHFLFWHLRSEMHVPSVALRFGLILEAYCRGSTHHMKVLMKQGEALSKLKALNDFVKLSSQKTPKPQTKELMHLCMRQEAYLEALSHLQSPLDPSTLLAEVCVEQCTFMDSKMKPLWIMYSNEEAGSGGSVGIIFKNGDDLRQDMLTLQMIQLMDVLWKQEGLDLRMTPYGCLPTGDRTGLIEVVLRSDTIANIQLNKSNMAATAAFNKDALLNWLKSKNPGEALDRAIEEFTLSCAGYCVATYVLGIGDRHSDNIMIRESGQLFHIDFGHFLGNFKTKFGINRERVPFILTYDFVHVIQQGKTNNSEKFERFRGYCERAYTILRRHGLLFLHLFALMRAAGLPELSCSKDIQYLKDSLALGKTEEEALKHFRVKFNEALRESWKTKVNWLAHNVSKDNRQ

[6] = target: T1, Serine/threonine-protein kinase mTOR; remark: listed apart in the source
[7] = Volume of distribution at steady state in Sprague-Dawley rat at 1 mg/kg, iv and 2 mg/kg, po; assay type: ADME, organism-based; settings: in vivo, read-out: Vdss
Rattus norvegicus = experiment: AUC in Sprague-Dawley rat at 1 mg/kg, iv; assay type: ADME, organism-based, Plasma; parameters: dose 1 mg/kg, route intravenous; settings: in vivo
[8] = Oral bioavailability in Sprague-Dawley rat at 2 mg/kg; assay type: ADME, organism-based; settings: in vivo
[9] = Clearance in Sprague-Dawley rat at 1 mg/kg, iv and 2 mg/kg, po; assay type: ADME, organism-based; settings: in vivo
[10] = Half life in Sprague-Dawley rat at 1 mg/kg, iv; assay type: ADME, organism-based; parameters: dose 1 mg/kg, route intravenous; settings: in vivo
[11] = target: Phosphatidylinositol 4,5-bisphosphate 3-kinase catalytic subunit beta isoform (Homo sapiens, UniProt P42338)
[12] = target: Phosphatidylinositol 4,5-bisphosphate 3-kinase catalytic subunit alpha isoform (Homo sapiens, UniProt P42336)
[13] = target: Casein kinase II subunit alpha (Homo sapiens) (UniProt P68400); experiment: Inhibition of CSNK2A1 at 1 uM relative to control
[14] = target: Receptor-type tyrosine-protein kinase FLT3 (Homo sapiens) (UniProt P36888); experiment: Inhibition of FLT3 at 1 uM relative to control
[15] = Intrinsic clearance in human liver microsomes; assay type: ADME, Microsome
[16] = Intrinsic clearance in rat liver microsomes; assay type: ADME, Microsome

Chain of Phosphatidylinositol 4,5-bisphosphate 3-kinase catalytic subunit alpha isoform (P42336 whole entry, canonical isoform): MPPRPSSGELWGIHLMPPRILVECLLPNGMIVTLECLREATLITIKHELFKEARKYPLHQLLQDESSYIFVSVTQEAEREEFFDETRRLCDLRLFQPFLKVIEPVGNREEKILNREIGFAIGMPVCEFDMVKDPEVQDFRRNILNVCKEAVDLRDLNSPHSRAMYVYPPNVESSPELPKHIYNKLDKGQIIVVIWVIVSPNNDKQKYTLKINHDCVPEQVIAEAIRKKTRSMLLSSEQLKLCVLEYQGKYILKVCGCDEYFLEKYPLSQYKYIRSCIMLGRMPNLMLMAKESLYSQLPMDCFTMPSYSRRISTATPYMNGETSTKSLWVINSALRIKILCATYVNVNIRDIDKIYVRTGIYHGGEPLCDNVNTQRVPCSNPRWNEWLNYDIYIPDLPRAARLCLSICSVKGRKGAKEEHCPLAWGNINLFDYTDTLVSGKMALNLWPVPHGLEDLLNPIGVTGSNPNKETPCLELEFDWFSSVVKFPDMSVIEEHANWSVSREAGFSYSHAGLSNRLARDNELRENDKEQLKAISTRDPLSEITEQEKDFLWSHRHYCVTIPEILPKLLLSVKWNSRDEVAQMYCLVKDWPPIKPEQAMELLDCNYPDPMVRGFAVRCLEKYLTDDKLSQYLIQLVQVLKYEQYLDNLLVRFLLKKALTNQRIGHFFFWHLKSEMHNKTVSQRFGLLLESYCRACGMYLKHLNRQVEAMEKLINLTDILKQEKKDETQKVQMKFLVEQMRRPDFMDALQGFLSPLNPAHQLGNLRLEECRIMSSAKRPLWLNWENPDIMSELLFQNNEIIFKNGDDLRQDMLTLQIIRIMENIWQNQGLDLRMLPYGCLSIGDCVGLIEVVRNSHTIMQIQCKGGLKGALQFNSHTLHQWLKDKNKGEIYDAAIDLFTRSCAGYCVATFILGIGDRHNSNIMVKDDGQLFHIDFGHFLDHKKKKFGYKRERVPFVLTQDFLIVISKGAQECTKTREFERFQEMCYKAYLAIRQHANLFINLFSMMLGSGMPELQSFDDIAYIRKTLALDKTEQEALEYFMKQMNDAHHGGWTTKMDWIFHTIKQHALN
Chain of Phosphatidylinositol 4,5-bisphosphate 3-kinase catalytic subunit beta isoform (P42338 whole entry, canonical isoform): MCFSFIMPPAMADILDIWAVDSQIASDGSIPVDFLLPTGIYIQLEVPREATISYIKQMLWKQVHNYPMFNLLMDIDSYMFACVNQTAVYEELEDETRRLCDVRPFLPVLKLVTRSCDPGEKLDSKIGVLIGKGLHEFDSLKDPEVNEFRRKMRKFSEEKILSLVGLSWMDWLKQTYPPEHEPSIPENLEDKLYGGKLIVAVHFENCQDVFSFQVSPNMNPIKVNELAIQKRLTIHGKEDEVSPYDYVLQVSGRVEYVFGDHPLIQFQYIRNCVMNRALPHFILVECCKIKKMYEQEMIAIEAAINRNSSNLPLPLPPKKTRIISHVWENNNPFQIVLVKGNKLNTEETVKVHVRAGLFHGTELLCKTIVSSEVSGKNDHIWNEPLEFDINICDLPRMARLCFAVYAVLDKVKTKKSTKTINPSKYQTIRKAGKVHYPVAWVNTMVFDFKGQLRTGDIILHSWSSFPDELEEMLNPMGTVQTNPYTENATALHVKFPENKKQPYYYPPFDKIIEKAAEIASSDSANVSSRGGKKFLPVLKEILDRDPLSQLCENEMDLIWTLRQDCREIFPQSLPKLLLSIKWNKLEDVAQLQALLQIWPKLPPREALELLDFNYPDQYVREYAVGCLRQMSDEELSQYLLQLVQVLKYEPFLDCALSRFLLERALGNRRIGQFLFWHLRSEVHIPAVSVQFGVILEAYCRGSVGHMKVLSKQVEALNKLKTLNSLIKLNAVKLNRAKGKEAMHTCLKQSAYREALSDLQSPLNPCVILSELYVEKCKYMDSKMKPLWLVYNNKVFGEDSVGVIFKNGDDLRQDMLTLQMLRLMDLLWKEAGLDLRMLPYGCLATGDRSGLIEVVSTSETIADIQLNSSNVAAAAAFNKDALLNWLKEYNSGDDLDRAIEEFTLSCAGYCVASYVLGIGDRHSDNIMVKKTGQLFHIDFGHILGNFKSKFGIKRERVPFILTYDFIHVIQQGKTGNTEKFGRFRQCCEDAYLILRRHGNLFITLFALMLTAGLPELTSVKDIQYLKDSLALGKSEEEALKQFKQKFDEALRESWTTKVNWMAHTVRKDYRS
Chain of Phosphatidylinositol 4,5-bisphosphate 3-kinase catalytic subunit gamma isoform (P48736 whole entry, canonical isoform): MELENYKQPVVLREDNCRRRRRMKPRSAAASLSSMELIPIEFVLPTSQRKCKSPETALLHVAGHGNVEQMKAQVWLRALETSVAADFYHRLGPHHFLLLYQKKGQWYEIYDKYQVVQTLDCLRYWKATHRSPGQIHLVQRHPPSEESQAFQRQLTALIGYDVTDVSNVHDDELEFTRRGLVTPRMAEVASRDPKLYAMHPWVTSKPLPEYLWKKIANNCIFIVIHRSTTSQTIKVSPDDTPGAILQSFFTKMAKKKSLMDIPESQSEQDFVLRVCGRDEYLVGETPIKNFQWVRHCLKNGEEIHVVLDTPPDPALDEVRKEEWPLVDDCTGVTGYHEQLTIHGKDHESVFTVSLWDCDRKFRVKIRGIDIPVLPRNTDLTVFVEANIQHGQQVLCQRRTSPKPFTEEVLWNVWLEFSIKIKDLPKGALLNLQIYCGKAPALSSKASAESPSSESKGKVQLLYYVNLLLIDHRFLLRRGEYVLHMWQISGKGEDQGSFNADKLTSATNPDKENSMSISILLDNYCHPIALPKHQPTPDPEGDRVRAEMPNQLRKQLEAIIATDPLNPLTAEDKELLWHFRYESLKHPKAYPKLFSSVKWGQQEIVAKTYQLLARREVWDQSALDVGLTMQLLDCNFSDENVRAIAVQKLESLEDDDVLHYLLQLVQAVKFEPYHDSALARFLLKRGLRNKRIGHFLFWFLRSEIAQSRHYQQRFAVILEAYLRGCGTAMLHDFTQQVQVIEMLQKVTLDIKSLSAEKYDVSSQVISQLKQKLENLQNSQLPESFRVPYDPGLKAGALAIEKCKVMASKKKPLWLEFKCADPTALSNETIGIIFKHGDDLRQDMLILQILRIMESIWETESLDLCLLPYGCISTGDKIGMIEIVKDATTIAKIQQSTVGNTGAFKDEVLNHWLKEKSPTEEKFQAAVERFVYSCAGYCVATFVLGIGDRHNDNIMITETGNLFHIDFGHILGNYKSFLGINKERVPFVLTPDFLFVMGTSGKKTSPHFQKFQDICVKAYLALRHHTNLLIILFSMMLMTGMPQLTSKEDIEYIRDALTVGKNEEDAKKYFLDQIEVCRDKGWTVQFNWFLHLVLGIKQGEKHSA
Chain of Receptor-type tyrosine-protein kinase FLT3 (Homo sapiens) (P36888 whole entry): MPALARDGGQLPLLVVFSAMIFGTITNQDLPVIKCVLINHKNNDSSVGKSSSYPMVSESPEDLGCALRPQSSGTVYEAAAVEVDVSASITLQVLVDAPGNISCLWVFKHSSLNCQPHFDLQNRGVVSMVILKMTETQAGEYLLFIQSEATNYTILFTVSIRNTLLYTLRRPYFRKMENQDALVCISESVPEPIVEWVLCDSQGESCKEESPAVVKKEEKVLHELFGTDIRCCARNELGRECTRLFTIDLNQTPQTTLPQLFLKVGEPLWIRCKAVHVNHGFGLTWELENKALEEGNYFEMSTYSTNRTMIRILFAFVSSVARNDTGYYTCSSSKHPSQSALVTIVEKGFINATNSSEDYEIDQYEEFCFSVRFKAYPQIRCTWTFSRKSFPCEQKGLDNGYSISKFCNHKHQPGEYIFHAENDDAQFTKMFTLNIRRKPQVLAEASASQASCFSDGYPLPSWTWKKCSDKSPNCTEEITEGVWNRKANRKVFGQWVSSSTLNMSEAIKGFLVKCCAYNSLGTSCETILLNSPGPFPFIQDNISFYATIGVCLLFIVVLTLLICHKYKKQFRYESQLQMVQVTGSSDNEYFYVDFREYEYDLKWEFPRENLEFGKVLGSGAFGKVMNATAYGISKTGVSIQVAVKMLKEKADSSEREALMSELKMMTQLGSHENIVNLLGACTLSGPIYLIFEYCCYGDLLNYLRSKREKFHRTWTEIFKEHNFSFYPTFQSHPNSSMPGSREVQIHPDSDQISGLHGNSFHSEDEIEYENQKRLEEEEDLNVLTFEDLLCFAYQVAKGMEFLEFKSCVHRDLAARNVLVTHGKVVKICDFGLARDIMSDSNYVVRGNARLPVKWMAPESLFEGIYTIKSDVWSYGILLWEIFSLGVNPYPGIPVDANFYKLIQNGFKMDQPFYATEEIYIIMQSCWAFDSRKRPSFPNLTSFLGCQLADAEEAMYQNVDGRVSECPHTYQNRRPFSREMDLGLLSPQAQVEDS
Chain of Casein kinase II subunit alpha (Homo sapiens) (P68400 whole entry, looked up): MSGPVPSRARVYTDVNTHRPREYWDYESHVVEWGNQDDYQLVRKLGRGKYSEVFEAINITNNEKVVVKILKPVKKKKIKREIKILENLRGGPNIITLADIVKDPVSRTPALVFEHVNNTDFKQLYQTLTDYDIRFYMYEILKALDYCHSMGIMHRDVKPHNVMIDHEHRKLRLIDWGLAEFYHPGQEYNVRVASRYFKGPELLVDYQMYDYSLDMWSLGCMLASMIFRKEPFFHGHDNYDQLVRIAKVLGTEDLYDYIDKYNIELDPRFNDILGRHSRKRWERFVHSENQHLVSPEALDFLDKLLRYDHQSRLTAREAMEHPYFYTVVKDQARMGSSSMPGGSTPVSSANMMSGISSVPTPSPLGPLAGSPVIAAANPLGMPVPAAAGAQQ

Compound Cc1nc(N)nc(-n2c(Nc3ccn[nH]3)nc3cc(F)c(F)cc32)n1 has an IC50 [1] of 45 nM, a fraction unbound [2] of 0.01 and an IC50 [3] of 24 nM. For the same compound, the IC50 [4] was 250 nM, the IC50 [5] was 110 nM and the IC50 [6] was 340 nM. The Vd [7] was 3 L/kg, the AUC (Rattus norvegicus) was 964 nM and the bioavailability [8] was 6%. It also gave a clearance [9] of 50 mL/min/kg, a half-life [10] of 42 min and an IC50 [11] of 1000 nM.
For Cc1nc(N)nc(-n2c(Nc3n[nH]c4ccccc34)nc3ccccc32)n1, the IC50 [1] was 250 nM, the IC50 [3] was 60 nM and the IC50 [4] was 190 nM. The IC50 [5] was 270 nM, the IC50 [6] was 4200 nM and the IC50 [12] was 960 nM. For the same compound, the IC50 [11] was 420 nM.
With Cc1nc(N)nc(-n2c(Nc3cccc(O)c3)nc3ccccc32)n1 the IC50 [1] was 9 nM, the inhibition [13] was 15% and the IC50 [3] was 7 nM. The IC50 [4] was 8 nM, the IC50 [5] was 3 nM and the IC50 [6] was 150 nM. For the same compound, the IC50 [12] was 4 nM, the inhibition [14] was 14% and the IC50 [11] was 9 nM.
CCc1nc(N)nc(-n2c(Nc3cccc(O)c3)nc3ccccc32)n1 showed an IC50 [1] of 410 nM, an IC50 [3] of 390 nM and an IC50 [6] of 6300 nM. It also gave an IC50 [12] of 340 nM.
Compound CC(=O)Nc1cccc(Nc2nc3ccccc3n2-c2nc(C)nc(N)n2)c1 has an IC50 [1] of 120 nM, an IC50 [3] of 290 nM and an IC50 [4] of 110 nM. For the same compound, the IC50 [5] was 890 nM, the IC50 [6] was 1500 nM and the IC50 [12] was 630 nM. It also gave an IC50 [11] of 1400 nM.
Oc1cccc(Nc2nc3ccccc3n2-c2ncncn2)c1 gave an IC50 [1] of 1600 nM, an IC50 [3] of 3000 nM and an IC50 [6] greater than 25000 nM. For the same compound, the IC50 [12] was 2000 nM.
With Oc1cccc(Nc2nc3ccccc3n2-c2ncnc(Nc3ccccc3)n2)c1 the IC50 [1] was 870 nM, the IC50 [3] was 2300 nM and the IC50 [6] was greater than 25000 nM. For the same compound, the IC50 [12] was 720 nM.
Work on Cc1nccc(-n2c(Nc3cccc(O)c3)nc3ccccc32)n1 yielded an IC50 [1] of 600 nM, an IC50 [3] of 370 nM and an IC50 [6] of 8900 nM. For the same compound, the IC50 [12] was 370 nM.
With Nc1cc(-n2c(Nc3cccc(O)c3)nc3ccccc32)ncn1 the IC50 [1] was 420 nM, the IC50 [3] was 110 nM and the IC50 [6] was 3500 nM. It also gave an IC50 [12] of 1000 nM.
CC(=O)Nc1ccc(Nc2nc3ccccc3n2-c2nc(C)nc(N)n2)cc1 gave an IC50 [1] of 180 nM, an IC50 [3] of 13 nM and an IC50 [4] of 20 nM. For the same compound, the IC50 [5] was 71 nM, the IC50 [6] was 340 nM and the IC50 [12] was 23 nM. The IC50 [11] was 410 nM.
Work on Cc1nc(N)nc(-n2c(Nc3ccn(C(F)F)n3)nc3ccccc32)n1 yielded an IC50 [1] of 770 nM, an IC50 [3] of 340 nM and an IC50 [4] of 860 nM. For the same compound, the IC50 [5] was 530 nM, the IC50 [6] was 6500 nM and the IC50 [12] was 10400 nM. For the same compound, the IC50 [11] was 22300 nM.
Work on CNC(=O)Nc1ccc(Nc2nc3ccccc3n2-c2nc(C)nc(N)n2)cc1 yielded an IC50 [1] of 11 nM, an IC50 [3] of 2 nM and an IC50 [4] of 13 nM. The IC50 [5] was 11 nM, the IC50 [6] was 340 nM and the IC50 [12] was 6 nM. The IC50 [11] was 17 nM.
For Cc1nc(N)nc(-n2c(Nc3ccon3)nc3ccccc32)n1, the IC50 [1] was 260 nM, the fraction unbound [2] was 0.023 and the IC50 [3] was 150 nM. For the same compound, the IC50 [4] was 2300 nM, the IC50 [5] was 1300 nM and the microsomal CLint [15] was 39 µL/min/mg. For the same compound, the IC50 [6] was 3300 nM, the Vd [7] was 1.4 L/kg and the AUC (Rattus norvegicus) was 1930 nM. For the same compound, the microsomal CLint [16] was 46 µL/min/mg, the IC50 [12] was 840 nM and the clearance [9] was 30 mL/min/kg. For the same compound, the half-life [10] was 30 min and the IC50 [11] was 3100 nM.
Cc1nc(N)nc(-n2c(NC3CCOCC3)nc3ccccc32)n1 showed an IC50 [1] of 680 nM, an IC50 [3] of 21400 nM and an IC50 [4] of 30 nM. The IC50 [5] was 710 nM, the IC50 [6] was greater than 25000 nM and the IC50 [12] was 1600 nM. The IC50 [11] was 2400 nM.
Compound COc1ncnc(-n2c(Nc3cccc(O)c3)nc3ccccc32)n1 has an IC50 [1] of 1900 nM, an IC50 [3] greater than 50000 nM and an IC50 [6] greater than 25000 nM. For the same compound, the IC50 [12] was 1700 nM.
With Cc1nc(N)nc(-n2c(Nc3cn[nH]c3)nc3ccccc32)n1 the IC50 [1] was 180 nM, the IC50 [3] was 190 nM and the IC50 [4] was 610 nM. The IC50 [5] was 690 nM, the IC50 [6] was 5300 nM and the IC50 [12] was 460 nM. The IC50 [11] was 1000 nM.
With Cc1nc(NCC#N)nc(-n2c(Nc3cccc(O)c3)nc3ccccc32)n1 the IC50 [1] was 17 nM, the IC50 [3] was 8 nM and the IC50 [6] was 380 nM. The IC50 [12] was 32 nM.
